Assay results: ChEMBL document CHEMBL1201862, “PubChem BioAssay data set” (2004)
Where a name gives a salt, the structure may show the parent alone. Active and inactive are the calls of the source.

Experiments:
[1] = target: T1, Small ubiquitin-related modifier 1 (Homo sapiens, UniProt P63165); test: SUMO1 protein interaction blockers, potency – biochemical, fluorescence polarization, uHTS hits, dose response (AID 624382); format: functional; details: read-out: IC50_Mean
[2] = target: T1, Small ubiquitin-related modifier 1; test: SUMO1 protein-protein binding blockers, potency – biochemical, FRET, dose response (AID 624383); format: functional; details: read-out: IC50_Mean
[3] = bead-based luminescence quenchers, dual-tagged ARNT – biochemical, AlphaScreen, cherry-pick, artefact control for ARNT-TACC3 interaction inhibitor project, dose response (AID 651705); format: functional;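 note: AlphaScreen bead proximity signal that flags compounds interfering with the detection technology; potency reflects signal decrease which marks the compound as an assay artifact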
[4] = target: T2, High affinity choline transporter 1 (Homo sapiens, UniProt Q9GZV3); test: human choline transporter blockers, potency – cell-based, 5-point CRC, membrane potential dye, dose response (AID 504840); format: functional
T2 sequence (Q9GZV3 whole entry): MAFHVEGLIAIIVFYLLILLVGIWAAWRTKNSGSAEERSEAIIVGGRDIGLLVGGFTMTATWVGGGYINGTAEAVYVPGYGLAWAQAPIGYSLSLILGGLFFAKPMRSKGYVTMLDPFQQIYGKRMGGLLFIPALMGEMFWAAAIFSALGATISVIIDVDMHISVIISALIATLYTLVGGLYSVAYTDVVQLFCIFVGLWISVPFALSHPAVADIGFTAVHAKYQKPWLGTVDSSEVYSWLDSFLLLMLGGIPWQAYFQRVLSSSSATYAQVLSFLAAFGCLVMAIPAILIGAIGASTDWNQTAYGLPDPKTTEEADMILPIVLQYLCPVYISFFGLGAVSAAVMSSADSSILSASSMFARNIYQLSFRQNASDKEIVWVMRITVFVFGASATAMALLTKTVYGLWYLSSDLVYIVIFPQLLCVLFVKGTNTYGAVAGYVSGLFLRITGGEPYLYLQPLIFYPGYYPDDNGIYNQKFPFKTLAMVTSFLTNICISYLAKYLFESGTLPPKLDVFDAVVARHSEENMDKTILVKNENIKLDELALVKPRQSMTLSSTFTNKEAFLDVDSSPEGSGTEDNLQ

[5] = target: T2, High affinity choline transporter 1; test: human choline transporter blockers, potency – cell-based, 10-point CRC, membrane potential dye, dose response (AID 588401); format: functional;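 note: membrane potential dye fluorescence of choline-evoked depolarization via CHT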
[6] = NIH-3T3 fibroblast cytotoxicity, dose response, cytotoxicity control, cell-based, fluorescence, Alamar Blue, secondary assay (AID 2327); format: functional;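 note: NIH-3T3 mouse fibroblasts cultured with fluconazole at 8 µg/mL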
[7] = fluconazole-exposed Candida albicans growth modulators – fluorescence, retest, confirmation (AID 2467); format: functional, cell-based
[8] = target: T3, Mitochondrial peptide methionine sulfoxide reductase (Bos taurus, UniProt P54149); test: Absorbance-based biochemical high throughput dose response assay for activators of Methionine sulfoxide reductase A (MsrA).; format: functional
T3 sequence (P54149 whole entry): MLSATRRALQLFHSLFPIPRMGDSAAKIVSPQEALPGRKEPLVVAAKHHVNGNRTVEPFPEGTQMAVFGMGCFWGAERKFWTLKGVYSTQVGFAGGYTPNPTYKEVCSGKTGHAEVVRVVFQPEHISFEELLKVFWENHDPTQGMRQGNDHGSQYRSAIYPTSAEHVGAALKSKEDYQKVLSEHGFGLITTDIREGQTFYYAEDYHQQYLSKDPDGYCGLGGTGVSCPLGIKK

[9] = target: Nuclear receptor subfamily 5 group A member 2 (Homo sapiens, UniProt O00482); format: functional, cell-based;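 note: HEK293T cells transfected with LRH-1 and a StAR promoter luciferase reporter; potency for inhibitors that lower LRH-1 driven reporter light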
Steroidogenic factor 1 = Steroidogenic factor 1 (Homo sapiens, UniProt Q13285); test: Counterscreen for inverse agonists of the liver receptor homolog-1 (LRH-1; NR5A2): Luminescence-based cell-based high throughput dose response assay to identify inverse agonists of the Steroidogenic Factor 1 Nuclear Receptor (SF1; NR5A1).; format: functional
[10] = nonselective StAR promoter luciferase inhibitors – cell-based, luminescence, luciferase reporter, counter-screen for LRH-1 inverse agonist project, dose response (AID 651969); format: functional
[11] = target: T4, Low molecular weight phosphotyrosine protein phosphatase (Homo sapiens, UniProt P24666); format: functional; details: read-out: IC50_Mean;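 note: Dose-response confirmation assay measuring inhibition of LMPTP enzyme activity by fluorescence intensity read-out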
T4 sequence (P24666 whole entry): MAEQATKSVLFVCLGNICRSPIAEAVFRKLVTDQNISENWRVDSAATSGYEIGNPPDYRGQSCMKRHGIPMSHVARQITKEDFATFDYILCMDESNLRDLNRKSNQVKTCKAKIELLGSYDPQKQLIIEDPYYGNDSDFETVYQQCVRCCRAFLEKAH

[12] = target: T5, Tyrosine-protein phosphatase non-receptor type 22 (Homo sapiens, UniProt Q9Y2R2); test: PTPN22 enzyme inhibitors – biochemical, fluorescence, LYP catalytic domain, selectivity assay for LMPTP inhibitor project, dose response (AID 652006); format: functional; details: read-out: IC50_Mean
T5 sequence (Q9Y2R2 whole entry): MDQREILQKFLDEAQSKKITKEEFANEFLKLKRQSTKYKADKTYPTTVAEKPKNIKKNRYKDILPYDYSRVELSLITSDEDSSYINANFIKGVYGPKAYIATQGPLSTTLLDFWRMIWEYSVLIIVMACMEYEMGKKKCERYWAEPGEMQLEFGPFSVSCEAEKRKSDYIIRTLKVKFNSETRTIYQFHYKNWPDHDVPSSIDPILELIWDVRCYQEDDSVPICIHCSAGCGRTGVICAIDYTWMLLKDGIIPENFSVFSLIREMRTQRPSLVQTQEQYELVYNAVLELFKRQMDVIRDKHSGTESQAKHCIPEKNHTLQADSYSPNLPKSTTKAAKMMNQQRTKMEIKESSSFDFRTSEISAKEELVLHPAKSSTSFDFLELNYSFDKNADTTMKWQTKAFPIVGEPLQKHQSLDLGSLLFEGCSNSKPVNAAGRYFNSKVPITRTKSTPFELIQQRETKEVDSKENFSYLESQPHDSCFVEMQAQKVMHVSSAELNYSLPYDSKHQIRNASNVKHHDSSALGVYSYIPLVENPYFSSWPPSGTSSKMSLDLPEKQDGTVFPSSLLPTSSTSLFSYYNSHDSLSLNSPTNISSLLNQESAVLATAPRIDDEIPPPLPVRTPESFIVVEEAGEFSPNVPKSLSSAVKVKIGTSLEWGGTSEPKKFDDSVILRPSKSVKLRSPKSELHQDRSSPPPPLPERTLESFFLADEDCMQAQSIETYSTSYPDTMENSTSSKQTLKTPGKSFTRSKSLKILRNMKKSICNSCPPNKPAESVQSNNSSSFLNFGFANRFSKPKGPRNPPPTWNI

[13] = target: Induced myeloid leukemia cell differentiation protein Mcl-1 (Homo sapiens, UniProt Q07820); format: functional
[14] = target: T6, Carboxy-terminal domain RNA polymerase II polypeptide A small phosphatase 1 (Homo sapiens, UniProt Q9GZU7); test: CTDSP1 inhibitors, concentration-response, biochemical, absorbance readout, ultra-high-throughput screen actives (AID 540297); format: functional
T6 sequence (Q9GZU7 whole entry): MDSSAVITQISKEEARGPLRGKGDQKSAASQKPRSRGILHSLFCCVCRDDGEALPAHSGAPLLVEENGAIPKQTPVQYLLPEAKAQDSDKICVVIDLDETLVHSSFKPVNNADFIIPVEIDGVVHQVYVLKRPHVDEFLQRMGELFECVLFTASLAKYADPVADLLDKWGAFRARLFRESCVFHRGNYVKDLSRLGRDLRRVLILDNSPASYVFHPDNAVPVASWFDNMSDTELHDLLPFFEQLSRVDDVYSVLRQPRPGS

[15] = target: DNA (cytosine-5)-methyltransferase 1 (Homo sapiens, UniProt P26358); test: inhibition of DNA methylation by DNMT1 – biochemical, fluorescent molecular beacon, confirmation (AID 602386); format: functional
[16] = target: T7, Probable nicotinate-nucleotide adenylyltransferase (Staphylococcus aureus (strain N315), UniProt P65502); format: functional, Staphylococcus aureus subsp. aureus N315;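 for IC50 Mean: confirmatory dose-response retesting of NadD inhibitor hits first found in an ultra-high-throughput screen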
T7 sequence (P65502 whole entry): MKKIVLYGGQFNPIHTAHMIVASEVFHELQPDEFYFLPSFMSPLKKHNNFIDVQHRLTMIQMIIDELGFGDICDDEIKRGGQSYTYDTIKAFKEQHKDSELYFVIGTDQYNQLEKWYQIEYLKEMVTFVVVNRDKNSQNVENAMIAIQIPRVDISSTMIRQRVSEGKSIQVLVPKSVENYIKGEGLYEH

[17] = target: T7, Probable nicotinate-nucleotide adenylyltransferase; format: functional, Staphylococcus aureus subsp. aureus N315; details: read-out: IC50_Mean
[18] = target: Serine/threonine-protein kinase pim-1 (Homo sapiens, UniProt P11309); format: functional
Serine/threonine-protein kinase pim-1, sequence (P11309 whole entry): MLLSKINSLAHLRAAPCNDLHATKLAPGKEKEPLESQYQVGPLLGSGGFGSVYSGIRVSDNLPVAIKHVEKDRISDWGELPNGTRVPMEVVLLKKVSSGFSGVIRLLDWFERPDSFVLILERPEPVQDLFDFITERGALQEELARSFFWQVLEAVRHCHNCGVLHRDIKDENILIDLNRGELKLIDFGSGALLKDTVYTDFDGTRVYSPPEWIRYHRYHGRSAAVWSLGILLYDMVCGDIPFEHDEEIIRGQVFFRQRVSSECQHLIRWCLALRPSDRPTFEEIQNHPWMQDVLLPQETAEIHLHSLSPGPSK

[19] = target: Cell division cycle 7-related protein kinase (Homo sapiens, UniProt O00311); format: functional;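 note: value obtained from a kinome-wide kinase panel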
Cell division cycle 7-related protein kinase, sequence (O00311 whole entry): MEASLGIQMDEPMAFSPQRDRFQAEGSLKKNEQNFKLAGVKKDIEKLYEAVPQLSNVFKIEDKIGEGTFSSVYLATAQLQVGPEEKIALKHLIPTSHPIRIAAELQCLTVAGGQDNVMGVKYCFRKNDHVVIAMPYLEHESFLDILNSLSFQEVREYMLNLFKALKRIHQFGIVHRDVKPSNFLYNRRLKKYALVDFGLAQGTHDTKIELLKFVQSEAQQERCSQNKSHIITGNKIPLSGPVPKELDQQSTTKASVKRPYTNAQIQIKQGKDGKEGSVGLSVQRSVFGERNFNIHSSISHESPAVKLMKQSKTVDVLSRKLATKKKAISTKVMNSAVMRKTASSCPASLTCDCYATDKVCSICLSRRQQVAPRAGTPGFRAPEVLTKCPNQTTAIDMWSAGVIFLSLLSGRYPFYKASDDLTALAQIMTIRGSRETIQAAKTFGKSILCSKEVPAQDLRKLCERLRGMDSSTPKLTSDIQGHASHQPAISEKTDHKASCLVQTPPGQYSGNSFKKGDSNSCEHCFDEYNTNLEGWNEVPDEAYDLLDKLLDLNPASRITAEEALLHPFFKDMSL

[20] = target: Homeodomain-interacting protein kinase 2 (Homo sapiens, UniProt Q9H2X6); format: functional;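 note: measured within a kinome-wide kinase profiling panel, HIPK2 being one panel member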
Homeodomain-interacting protein kinase 2, sequence (Q9H2X6 whole entry): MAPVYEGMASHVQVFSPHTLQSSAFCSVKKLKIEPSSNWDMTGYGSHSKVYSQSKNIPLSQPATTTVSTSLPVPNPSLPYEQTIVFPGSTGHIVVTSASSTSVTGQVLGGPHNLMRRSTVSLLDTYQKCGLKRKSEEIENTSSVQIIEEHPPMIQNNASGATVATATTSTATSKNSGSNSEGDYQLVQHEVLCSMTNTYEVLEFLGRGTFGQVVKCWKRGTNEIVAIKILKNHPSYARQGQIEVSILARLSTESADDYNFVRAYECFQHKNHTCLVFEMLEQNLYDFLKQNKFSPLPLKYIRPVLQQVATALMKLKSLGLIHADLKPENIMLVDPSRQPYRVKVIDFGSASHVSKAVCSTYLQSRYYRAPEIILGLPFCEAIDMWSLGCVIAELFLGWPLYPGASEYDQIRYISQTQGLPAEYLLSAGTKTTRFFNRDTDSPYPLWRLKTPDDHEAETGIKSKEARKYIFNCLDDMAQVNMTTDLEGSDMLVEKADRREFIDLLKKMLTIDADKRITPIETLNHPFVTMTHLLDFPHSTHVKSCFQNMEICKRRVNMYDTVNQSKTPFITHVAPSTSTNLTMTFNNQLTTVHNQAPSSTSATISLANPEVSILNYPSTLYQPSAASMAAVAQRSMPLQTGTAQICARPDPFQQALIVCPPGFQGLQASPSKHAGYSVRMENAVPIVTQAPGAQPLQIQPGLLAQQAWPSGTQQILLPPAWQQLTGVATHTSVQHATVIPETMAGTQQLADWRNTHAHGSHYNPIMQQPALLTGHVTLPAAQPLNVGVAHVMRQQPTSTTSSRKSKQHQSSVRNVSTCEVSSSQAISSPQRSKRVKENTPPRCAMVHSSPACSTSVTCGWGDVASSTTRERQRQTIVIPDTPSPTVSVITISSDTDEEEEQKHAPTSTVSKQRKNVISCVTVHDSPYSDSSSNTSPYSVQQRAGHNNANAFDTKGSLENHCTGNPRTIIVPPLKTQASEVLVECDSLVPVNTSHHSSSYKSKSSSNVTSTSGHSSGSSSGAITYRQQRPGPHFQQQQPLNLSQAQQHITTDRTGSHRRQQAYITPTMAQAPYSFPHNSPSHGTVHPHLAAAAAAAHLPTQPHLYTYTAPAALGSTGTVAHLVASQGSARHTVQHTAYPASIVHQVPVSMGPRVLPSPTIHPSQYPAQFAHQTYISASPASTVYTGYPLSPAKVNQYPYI

[21] = target: Interleukin-1 receptor-associated kinase 4 (Homo sapiens, UniProt Q9NWZ3); format: functional
Interleukin-1 receptor-associated kinase 4, sequence (Q9NWZ3 whole entry): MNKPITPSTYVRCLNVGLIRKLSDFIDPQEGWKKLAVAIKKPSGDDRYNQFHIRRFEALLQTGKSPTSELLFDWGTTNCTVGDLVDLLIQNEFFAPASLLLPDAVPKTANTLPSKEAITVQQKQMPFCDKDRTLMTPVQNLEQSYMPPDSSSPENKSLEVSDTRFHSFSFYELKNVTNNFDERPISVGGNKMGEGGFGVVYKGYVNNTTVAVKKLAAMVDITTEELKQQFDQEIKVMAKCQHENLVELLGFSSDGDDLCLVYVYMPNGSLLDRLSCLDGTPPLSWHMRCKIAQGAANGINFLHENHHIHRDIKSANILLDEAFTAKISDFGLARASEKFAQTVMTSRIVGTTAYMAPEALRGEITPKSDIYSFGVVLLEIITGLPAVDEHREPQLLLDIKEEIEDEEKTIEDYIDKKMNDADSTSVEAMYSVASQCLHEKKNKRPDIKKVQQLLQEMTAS

[22] = target: Glycogen synthase kinase-3 beta (Homo sapiens, UniProt P49841); format: functional;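 note: value comes from a broad kinome profiling panel, with GSK3B as the panel member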
[23] = target: cAMP-dependent protein kinase catalytic subunit alpha (Homo sapiens, UniProt P17612); format: functional
[24] = target: Dual specificity protein kinase CLK4 (Homo sapiens, UniProt Q9HAZ1); format: functional
Dual specificity protein kinase CLK4, sequence (Q9HAZ1 whole entry): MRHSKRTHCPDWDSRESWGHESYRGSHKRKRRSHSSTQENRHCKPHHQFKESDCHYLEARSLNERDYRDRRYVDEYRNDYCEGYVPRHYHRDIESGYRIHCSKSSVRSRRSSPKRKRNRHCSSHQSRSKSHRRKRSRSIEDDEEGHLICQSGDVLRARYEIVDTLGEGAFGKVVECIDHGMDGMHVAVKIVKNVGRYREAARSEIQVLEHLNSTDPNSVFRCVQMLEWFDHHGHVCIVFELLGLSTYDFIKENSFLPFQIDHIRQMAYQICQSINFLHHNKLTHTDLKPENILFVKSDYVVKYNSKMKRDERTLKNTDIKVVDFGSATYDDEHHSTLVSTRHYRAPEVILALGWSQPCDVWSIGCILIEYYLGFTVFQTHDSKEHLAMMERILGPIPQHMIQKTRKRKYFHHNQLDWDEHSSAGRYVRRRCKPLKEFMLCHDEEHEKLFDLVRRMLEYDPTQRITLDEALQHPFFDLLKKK

[25] = target: DNA repair and recombination protein RAD54-like (Homo sapiens, UniProt Q92698); test: RAD54 Holliday junction migration blockers – biochemical, fluorescence, cherry-picked samples, dose series, confirmation (AID 651657); format: functional
DNA repair and recombination protein RAD54-like, sequence (Q92698 whole entry): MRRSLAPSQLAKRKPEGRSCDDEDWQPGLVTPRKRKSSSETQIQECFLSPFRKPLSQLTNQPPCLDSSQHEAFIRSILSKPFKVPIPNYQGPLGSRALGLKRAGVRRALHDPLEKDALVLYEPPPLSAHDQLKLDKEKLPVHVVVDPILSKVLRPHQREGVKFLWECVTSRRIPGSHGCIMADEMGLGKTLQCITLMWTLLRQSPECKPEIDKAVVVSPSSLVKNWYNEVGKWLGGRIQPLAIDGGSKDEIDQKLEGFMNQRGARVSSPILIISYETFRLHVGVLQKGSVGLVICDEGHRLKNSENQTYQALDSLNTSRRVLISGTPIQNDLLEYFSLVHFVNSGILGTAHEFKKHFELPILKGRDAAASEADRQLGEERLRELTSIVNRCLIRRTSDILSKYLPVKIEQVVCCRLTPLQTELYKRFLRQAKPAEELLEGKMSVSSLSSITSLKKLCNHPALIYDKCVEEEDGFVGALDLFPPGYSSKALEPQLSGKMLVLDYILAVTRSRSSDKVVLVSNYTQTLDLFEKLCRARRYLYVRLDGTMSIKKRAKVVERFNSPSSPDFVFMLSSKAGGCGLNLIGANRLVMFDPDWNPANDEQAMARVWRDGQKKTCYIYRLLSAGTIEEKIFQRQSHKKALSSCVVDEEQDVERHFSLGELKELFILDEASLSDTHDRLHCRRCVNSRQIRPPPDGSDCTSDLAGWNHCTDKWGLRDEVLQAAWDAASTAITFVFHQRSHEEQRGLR

[26] = target: T8, DNA repair protein RAD52 homolog (Homo sapiens, UniProt P43351); format: functional, biochemical
T8 sequence (P43351 whole entry): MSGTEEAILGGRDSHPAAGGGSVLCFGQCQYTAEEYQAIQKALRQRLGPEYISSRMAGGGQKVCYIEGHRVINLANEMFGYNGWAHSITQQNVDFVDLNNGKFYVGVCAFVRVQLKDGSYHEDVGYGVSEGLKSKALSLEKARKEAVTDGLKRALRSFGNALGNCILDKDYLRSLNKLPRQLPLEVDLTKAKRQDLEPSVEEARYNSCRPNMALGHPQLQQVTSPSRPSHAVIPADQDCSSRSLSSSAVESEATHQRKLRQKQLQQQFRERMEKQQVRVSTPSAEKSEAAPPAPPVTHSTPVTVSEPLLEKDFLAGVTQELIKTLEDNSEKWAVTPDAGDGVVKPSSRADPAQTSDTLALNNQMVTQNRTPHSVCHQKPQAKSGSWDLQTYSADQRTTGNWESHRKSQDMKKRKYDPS

[27] = target: T9, Sentrin-specific protease 1 (Homo sapiens, UniProt Q9P0U3); test: SENP1 catalytic domain blockers, concentration series – biochemical, kinetic FRET, dose response (AID 651697); format: functional; details: read-out: IC50_Mean
T9 sequence (Q9P0U3 whole entry, the tested form may be a part): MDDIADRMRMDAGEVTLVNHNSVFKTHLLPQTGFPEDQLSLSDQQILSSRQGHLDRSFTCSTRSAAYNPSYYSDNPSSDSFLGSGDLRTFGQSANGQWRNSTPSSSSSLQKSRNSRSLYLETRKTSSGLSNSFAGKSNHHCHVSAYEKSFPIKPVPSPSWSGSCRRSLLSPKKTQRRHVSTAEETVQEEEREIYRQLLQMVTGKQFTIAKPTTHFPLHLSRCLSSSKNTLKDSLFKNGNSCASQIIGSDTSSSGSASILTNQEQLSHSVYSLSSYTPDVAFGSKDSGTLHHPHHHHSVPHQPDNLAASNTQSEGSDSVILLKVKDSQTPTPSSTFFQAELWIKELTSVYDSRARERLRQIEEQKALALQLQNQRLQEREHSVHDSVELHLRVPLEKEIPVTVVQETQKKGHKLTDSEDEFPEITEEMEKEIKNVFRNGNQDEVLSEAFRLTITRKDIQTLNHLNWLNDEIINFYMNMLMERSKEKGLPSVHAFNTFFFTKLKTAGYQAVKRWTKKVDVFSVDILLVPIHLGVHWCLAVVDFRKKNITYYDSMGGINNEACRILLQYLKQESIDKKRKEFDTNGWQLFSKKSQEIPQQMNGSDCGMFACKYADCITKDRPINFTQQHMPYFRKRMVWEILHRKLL

[28] = target: T9, Sentrin-specific protease 1; test: Dose response confirmation of small molecule inhibitors of the catalytic domain of the SUMO protease, SENP1 in a FRET assay.; format: functional; details: read-out: IC50_Mean

T1 sequence (P63165 whole entry): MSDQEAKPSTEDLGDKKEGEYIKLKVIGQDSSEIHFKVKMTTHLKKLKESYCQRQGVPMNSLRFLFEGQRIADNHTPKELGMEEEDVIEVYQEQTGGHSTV

In the case of `O=C(COC(=O)c1nc(Cl)ccc1Cl)Nc1ccc2[nH]c(O)nc2c1`, the IC50 [1] is reported as > 66.6 µM (inactive) and the IC50 [2] is reported as 20.8 µM (inactive).

In the case of `CS(=O)(=O)c1cccc(-c2nnc(NC(=O)c3ccc(S(=O)(=O)N4CCCC4)cc3)o2)c1`, the AC50 [3] is reported as 113 µM (active).

With `Cc1ccc(NC(=O)c2ccccc2NS(=O)(=O)c2ccc(Cl)s2)cc1S(=O)(=O)N1CCOCC1` the IC50 [4] was 9.12 µM (active) and the IC50 [5] was 7.23 µM (active).

With `Cc1ccc(C(=O)NC(=S)NNC(=O)CC#N)cc1` the EC50 [6] was > 150 µM (inconclusive), the EC50 [7] was > 38 µM (not active) and the EC50 [8] was > 104 µM (inactive).

In the case of `Cc1cc(OCC(=O)NCc2cccnc2)c2c(C)c(C)c(=O)oc2c1`, the IC50 [9] is reported as 2.88 µM (active), the IC50 (Steroidogenic factor 1) is reported as 2.35 µM (active) and the IC50 [10] is reported as 35.9 µM (inactive).

With `COCC(C)N1CCC(Oc2cccc(C(=O)NCCc3ccccc3)c2)CC1` (stereo unspecified) the IC50 [4] was 7.46 µM (active) and the IC50 [5] was 4.22 µM (active).

For `COc1cccc2c1[C@@H]1CN(CCCCn3c(=O)[nH]c4c(sc5ncc(-c6ccccc6)nc54)c3=O)C[C@@H]1CO2` [FIDUXOSIN HYDROCHLORIDE], the IC50 [11] was 13.2 µM (active) and the IC50 [12] was 24.7 µM (inactive).

For `Cn1c(N)c(C(=O)COC(=O)c2cc(-c3ccco3)nc3ccccc23)c(=O)n(C)c1=O`, the IC50 [13] was 2.97 µM (active), the IC50 [14] was 2.52 µM (active) and the IC50 [15] was 5.78 µM (active). For the same molecule, the IC50 [16] was 6.76 µM (active) and the IC50 [17] was 15.9 µM (active).

With `CC(C)(O)CNc1cc(-c2c[nH]c3ncccc23)cc(Cl)n1` the Ki [18] was 1 µM (active), the Ki [19] was 0.002 µM (active) and the Ki [20] was 0.126 µM (active). The Ki [21] was 2.51 µM (active), the Ki [22] was 0.316 µM (active) and the Ki [23] was 0.316 µM (active). The Ki [24] was 0.00501 µM (active).

In the case of `CN(C)CCCNc1c2c(nc3ccccc13)CCC2`, the AC50 [25] is reported as 20.8 µM (active) and the AC50 [26] is reported as 4.86 µM (active).

With `C=CCOc1c(Br)cc(/C=C2/N=C(S)N(C(C)=O)C2=O)cc1OC` the IC50 [27] was 7.01 µM (active) and the IC50 [28] was 8.78 µM (active).
